Measured values reported in PubChem BioAssay (NCI).
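Grown in 96-well plates, cells were treated for 48 hours with each compound at five concentrations. Insufficient inhibition: endpoint recorded as highest concentration tested. TGI denotes the concentration required for complete inhibition of growth.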

Key:
Test in all cases: DTP human tumour cell line panel, 48 h
UACC-62 melanoma = tested on: UACC-62 melanoma
LOX IMVI melanoma = tested on: LOX IMVI melanoma
DMS 273 small cell lung = tested on: DMS 273 small cell lung
NCI-H522 lung = tested on: NCI-H522 lung
TK-10 renal = tested on: TK-10 renal
HL-60(TB) leukemia = tested on: HL-60(TB) leukemia
SNB-75 CNS = tested on: SNB-75 CNS
SK-MEL-5 melanoma = tested on: SK-MEL-5 melanoma
RXF 393 renal = tested on: RXF 393 renal
HCT-116 colon = tested on: HCT-116 colon
HOP-62 NSCLC = tested on: HOP-62 NSCLC
HT29 colon = tested on: HT29 colon
OVCAR-3 ovarian = tested on: OVCAR-3 ovarian
SK-MEL-2 melanoma = tested on: SK-MEL-2 melanoma
NCI-H23 lung = tested on: NCI-H23 lung
NCI-H460 lung = tested on: NCI-H460 lung
OVCAR-8 ovarian = tested on: OVCAR-8 ovarian
786-0 renal = tested on: 786-0 renal
HOP-18 NSCLC = tested on: HOP-18 NSCLC
SW-620 colon = tested on: SW-620 colon
SK-MEL-28 melanoma = tested on: SK-MEL-28 melanoma
OVCAR-4 ovarian = tested on: OVCAR-4 ovarian
SK-OV-3 ovarian = tested on: SK-OV-3 ovarian
SF-539 CNS = tested on: SF-539 CNS
MOLT-4 leukemia = tested on: MOLT-4 leukemia
DLD-1 colon = tested on: DLD-1 colon
SF-268 CNS = tested on: SF-268 CNS
HCC-2998 colon = tested on: HCC-2998 colon
A549 NSCLC = tested on: A549 NSCLC
SF-295 CNS = tested on: SF-295 CNS
RXF-631 renal = tested on: RXF-631 renal
ACHN renal = tested on: ACHN renal
IGROV1 ovarian = tested on: IGROV1 ovarian
NCI-H226 lung = tested on: NCI-H226 lung
UACC-257 melanoma = tested on: UACC-257 melanoma
KM20L2 colon = tested on: KM20L2 colon
KM12 colon = tested on: KM12 colon
UO-31 renal = tested on: UO-31 renal
SNB-19 CNS = tested on: SNB-19 CNS
SN12C renal = tested on: SN12C renal
MALME-3M melanoma = tested on: MALME-3M melanoma
CCRF-CEM leukemia = tested on: CCRF-CEM leukemia
M19-MEL melanoma = tested on: M19-MEL melanoma
DMS 114 small cell lung = tested on: DMS 114 small cell lung
EKVX NSCLC = tested on: EKVX NSCLC
COLO 205 colon = tested on: COLO 205 colon
LXFL 529 NSCLC = tested on: LXFL 529 NSCLC
HCT-15 colon = tested on: HCT-15 colon
CAKI-1 renal = tested on: CAKI-1 renal
M14 melanoma = tested on: M14 melanoma
HOP-92 NSCLC = tested on: HOP-92 NSCLC
SR leukemia = tested on: SR leukemia
A498 renal = tested on: A498 renal
RPMI-8226 leukemia = tested on: RPMI-8226 leukemia
U251 CNS = tested on: U251 CNS
K-562 leukemia = tested on: K-562 leukemia
SNB-78 CNS = tested on: SNB-78 CNS
OVCAR-5 ovarian = tested on: OVCAR-5 ovarian
XF 498 CNS = tested on: XF 498 CNS

With `CC(C)(C)OC(=O)N[C@H]1CC(=O)c2ccccc2N(CC(=O)O)C1=O` the TGI (UACC-62 melanoma) was > 100 µM, the TGI (LOX IMVI melanoma) was > 100 µM and the TGI (DMS 273 small cell lung) was > 100 µM. The TGI (NCI-H522 lung) was > 100 µM, the TGI (TK-10 renal) was > 100 µM and the TGI (HL-60(TB) leukemia) was > 100 µM. For the same molecule, the TGI (SNB-75 CNS) was > 100 µM, the TGI (SK-MEL-5 melanoma) was > 100 µM and the TGI (RXF 393 renal) was > 100 µM. The TGI (HCT-116 colon) was 75 µM, the TGI (HOP-62 NSCLC) was > 100 µM and the TGI (HT29 colon) was > 100 µM. For the same molecule, the TGI (OVCAR-3 ovarian) was > 100 µM, the TGI (SK-MEL-2 melanoma) was > 100 µM and the TGI (NCI-H23 lung) was > 100 µM. For the same molecule, the TGI (NCI-H460 lung) was > 100 µM, the TGI (OVCAR-8 ovarian) was > 100 µM and the TGI (786-0 renal) was > 100 µM. The TGI (HOP-18 NSCLC) was > 100 µM, the TGI (SW-620 colon) was > 100 µM and the TGI (SK-MEL-28 melanoma) was > 100 µM. For the same molecule, the TGI (OVCAR-4 ovarian) was > 100 µM, the TGI (SK-OV-3 ovarian) was > 100 µM and the TGI (SF-539 CNS) was > 100 µM. The TGI (MOLT-4 leukemia) was > 100 µM, the TGI (DLD-1 colon) was > 100 µM and the TGI (SF-268 CNS) was > 100 µM. For the same molecule, the TGI (HCC-2998 colon) was > 100 µM, the TGI (A549 NSCLC) was > 100 µM and the TGI (SF-295 CNS) was > 100 µM. The TGI (RXF-631 renal) was > 100 µM, the TGI (ACHN renal) was > 100 µM and the TGI (IGROV1 ovarian) was > 100 µM. The TGI (NCI-H226 lung) was > 100 µM, the TGI (UACC-257 melanoma) was > 100 µM and the TGI (KM20L2 colon) was > 100 µM. For the same molecule, the TGI (KM12 colon) was > 100 µM, the TGI (UO-31 renal) was > 100 µM and the TGI (SNB-19 CNS) was > 100 µM. The TGI (SN12C renal) was > 100 µM, the TGI (MALME-3M melanoma) was 37.1 µM and the TGI (CCRF-CEM leukemia) was > 100 µM. The TGI (M19-MEL melanoma) was > 100 µM, the TGI (DMS 114 small cell lung) was > 100 µM and the TGI (EKVX NSCLC) was > 100 µM. For the same molecule, the TGI (COLO 205 colon) was > 100 µM, the TGI (LXFL 529 NSCLC) was > 100 µM and the TGI (HCT-15 colon) was > 100 µM. For the same molecule, the TGI (CAKI-1 renal) was > 100 µM, the TGI (M14 melanoma) was > 100 µM and the TGI (HOP-92 NSCLC) was > 100 µM.

In the case of `O=C1OC(=O)c2c1nc1ccccc1c2-c1ccccc1`, the TGI (UACC-62 melanoma) is reported as > 100 µM, the TGI (LOX IMVI melanoma) is reported as > 100 µM and the TGI (DMS 273 small cell lung) is reported as > 100 µM. For the same molecule, the TGI (NCI-H522 lung) was > 100 µM, the TGI (SR leukemia) was > 100 µM and the TGI (TK-10 renal) was > 100 µM. The TGI (HL-60(TB) leukemia) was > 100 µM, the TGI (SNB-75 CNS) was > 100 µM and the TGI (SK-MEL-5 melanoma) was > 100 µM. The TGI (RXF 393 renal) was > 100 µM, the TGI (A498 renal) was > 100 µM and the TGI (HCT-116 colon) was > 100 µM. The TGI (HOP-62 NSCLC) was > 100 µM, the TGI (HT29 colon) was > 100 µM and the TGI (RPMI-8226 leukemia) was > 100 µM. The TGI (SK-MEL-2 melanoma) was > 100 µM, the TGI (NCI-H460 lung) was > 100 µM and the TGI (OVCAR-8 ovarian) was > 100 µM. The TGI (U251 CNS) was > 100 µM, the TGI (786-0 renal) was > 100 µM and the TGI (HOP-18 NSCLC) was > 100 µM. The TGI (SW-620 colon) was > 100 µM, the TGI (OVCAR-4 ovarian) was > 100 µM and the TGI (SK-OV-3 ovarian) was > 100 µM. For the same molecule, the TGI (SF-539 CNS) was > 100 µM, the TGI (MOLT-4 leukemia) was > 100 µM and the TGI (DLD-1 colon) was > 100 µM. The TGI (SF-268 CNS) was > 100 µM, the TGI (HCC-2998 colon) was > 100 µM and the TGI (A549 NSCLC) was > 100 µM. The TGI (SF-295 CNS) was > 100 µM, the TGI (RXF-631 renal) was > 100 µM and the TGI (ACHN renal) was > 100 µM. The TGI (K-562 leukemia) was > 100 µM, the TGI (IGROV1 ovarian) was > 100 µM and the TGI (NCI-H226 lung) was > 100 µM. For the same molecule, the TGI (UACC-257 melanoma) was > 100 µM, the TGI (KM20L2 colon) was > 100 µM and the TGI (KM12 colon) was > 100 µM. For the same molecule, the TGI (UO-31 renal) was > 100 µM, the TGI (SNB-19 CNS) was > 100 µM and the TGI (SN12C renal) was > 100 µM. For the same molecule, the TGI (MALME-3M melanoma) was > 100 µM, the TGI (CCRF-CEM leukemia) was > 100 µM and the TGI (M19-MEL melanoma) was > 100 µM. The TGI (DMS 114 small cell lung) was > 100 µM, the TGI (SNB-78 CNS) was > 100 µM and the TGI (COLO 205 colon) was > 100 µM. For the same molecule, the TGI (LXFL 529 NSCLC) was > 100 µM, the TGI (HCT-15 colon) was > 100 µM and the TGI (OVCAR-5 ovarian) was > 100 µM. The TGI (CAKI-1 renal) was > 100 µM, the TGI (M14 melanoma) was > 100 µM and the TGI (HOP-92 NSCLC) was > 100 µM.

`O=c1c2ccccc2nc(-c2cccc(Cl)c2)n1NC1OC(CO)C(O)C(O)C1O` (stereo not given) was tested, and the TGI (UACC-62 melanoma) was > 100 µM, the TGI (DMS 273 small cell lung) was > 100 µM and the TGI (NCI-H522 lung) was > 100 µM. The TGI (TK-10 renal) was > 100 µM, the TGI (HL-60(TB) leukemia) was > 100 µM and the TGI (SNB-75 CNS) was > 100 µM. The TGI (SK-MEL-5 melanoma) was > 100 µM, the TGI (A498 renal) was > 100 µM and the TGI (HCT-116 colon) was > 100 µM. The TGI (HOP-62 NSCLC) was > 100 µM, the TGI (HT29 colon) was > 100 µM and the TGI (OVCAR-3 ovarian) was > 100 µM. The TGI (RPMI-8226 leukemia) was > 100 µM, the TGI (SK-MEL-2 melanoma) was > 100 µM and the TGI (NCI-H23 lung) was > 100 µM. For the same molecule, the TGI (NCI-H460 lung) was > 100 µM, the TGI (OVCAR-8 ovarian) was > 100 µM and the TGI (U251 CNS) was > 100 µM. For the same molecule, the TGI (786-0 renal) was > 100 µM, the TGI (HOP-18 NSCLC) was > 100 µM and the TGI (SW-620 colon) was > 100 µM. For the same molecule, the TGI (SK-MEL-28 melanoma) was > 100 µM, the TGI (OVCAR-4 ovarian) was > 100 µM and the TGI (SK-OV-3 ovarian) was > 100 µM. For the same molecule, the TGI (SF-539 CNS) was > 100 µM, the TGI (MOLT-4 leukemia) was > 100 µM and the TGI (SF-268 CNS) was > 100 µM. The TGI (HCC-2998 colon) was > 100 µM, the TGI (A549 NSCLC) was > 100 µM and the TGI (SF-295 CNS) was > 100 µM. The TGI (RXF-631 renal) was > 100 µM, the TGI (ACHN renal) was > 100 µM and the TGI (K-562 leukemia) was > 100 µM. For the same molecule, the TGI (IGROV1 ovarian) was > 100 µM, the TGI (NCI-H226 lung) was > 100 µM and the TGI (UACC-257 melanoma) was > 100 µM. The TGI (KM20L2 colon) was > 100 µM, the TGI (KM12 colon) was > 100 µM and the TGI (UO-31 renal) was > 100 µM. For the same molecule, the TGI (SNB-19 CNS) was > 100 µM, the TGI (SN12C renal) was > 100 µM and the TGI (MALME-3M melanoma) was > 100 µM. The TGI (CCRF-CEM leukemia) was > 100 µM, the TGI (XF 498 CNS) was > 100 µM and the TGI (M19-MEL melanoma) was > 100 µM. For the same molecule, the TGI (DMS 114 small cell lung) was > 100 µM, the TGI (EKVX NSCLC) was > 100 µM and the TGI (SNB-78 CNS) was > 100 µM. For the same molecule, the TGI (COLO 205 colon) was > 100 µM, the TGI (LXFL 529 NSCLC) was > 100 µM and the TGI (HCT-15 colon) was > 100 µM. For the same molecule, the TGI (OVCAR-5 ovarian) was > 100 µM, the TGI (CAKI-1 renal) was > 100 µM and the TGI (M14 melanoma) was > 100 µM. The TGI (HOP-92 NSCLC) was > 100 µM.
